Source: patent US4309343A, “Pharmacologically active peptides” (Eli Lilly and Company, priority 1980, dated 1982)
“And” between values parts separate entries of the source, which are not always exact repeats. Equal entries are not always repeated. Structures can show the parent of a compound that is named as a salt.

Columns and labels:
mouse vas deferens = mouse vas deferens test, electrically evoked twitch; type: cell-based; conditions: concentration causing depression of 50% of the electrically evoked contraction; field stimulation 0.15 Hz, 1 msec., 40 V; 37° C.
Description: In the mouse vas deferens test, single mouse vas deferens from mature mice (Cox, 30-40 g.) are suspended in 3 ml. of modified Kreb's solution aerated with 95% O2 -5% CO2 and maintained at 37° C. The twitch induced by field stimulation (0.15 Hz, 1 msec., 40 V) is recorded on a polygraph via an isometric transducer. The test compound is added to the bath in 20 to 30 μl. aliquots. A dose-response curve is constructed by cumulative addition of appropriate amounts of the compound to the bath. Comparison of relative agonist potency is made on the basis of IC50 values (concentration causing depression of 50% of the electrically evoked contraction).

mouse (Cox Standard) = experiment: mouse hot plate test (mouse jump); type: in vivo; conditions: subcutaneous injection, 15 minutes after administration, hot plate 52° C., dose producing analgesia in 50% of mice
Description: In the mouse hot plate test, an upright acrylic cylinder comprising, as its base, a hot plate surface which is maintained at 52° C. is used. A mouse (Cox Standard) is given, by subcutaneous injection, a predetermined amount of test compound dissolved or suspended in a suitable carrier, and, 15 minutes after administration of the test compound, the mouse is placed on the hot plate surface. The latency in seconds until the mouse jumps from the hot plate surface is measured. […] This must occur in a dose range which produces no motor incoordination or incapacitation. The following Table records ED50 results obtained from this test. By the term "ED50 " is meant that dose which produces analgesia in 50% of the mice tested. Analgesia is defined as a response latency in the presence of test compound that is equal to or greater than the control response latency plus two standard deviations. The percent analgesia data are converted to probits, and the ED50 is calculated by regression analysis of the dose-response data. Each dose response curve must have at least four points, and each point is determined using data from a minimum of ten treated mice and ten control mice.

mice = conditions: cited from earlier work; for analgesic activity upon intracerebroventricular administration: mice, intracerebroventricularly, Buscher et al., Nature, 261, 423 (1976); for analgesic activity when administered parenterally: parenteral administration

| Compound | IC50 (mouse vas deferens) [nM] | Mouse Jump ED50 (mouse (Cox Standard)) [mg/kg] | Mouse Jump ED50 (mouse (Cox Standard); Diformate Salt) | analgesic activity upon intracerebroventricular administration (mice) | analgesic activity when administered parenterally (mice) |
| --- | --- | --- | --- | --- | --- |
| C[C@@H](NC(=O)[C@@H](N)Cc1ccc(O)cc1)C(=O)NCC(=O)N[C@@H](Cc1ccccc1)C(=O)NCCCCCCCCNC(=O)[C@H](Cc1ccccc1)NC(=O)CNC(=O)[C@@H](C)NC(=O)[C@@H](N)Cc1ccc(O)cc1 [Example 2, N,N'-1,8-Octanediylbis-[L-tyrosyl-D-alanyl-glycyl-L-phenylalanylamide], Diacetate Salt] | 67 | > 30 |  |  |  |
| N,N'-1,4-Butanediylbis-[L-tyrosyl-D-alanyl-glycyl-L-phenylalanyl-L-(N^α -methyl)methioninamide], Diformate Salt [Example 4] |  |  | 5.5 mg/kg and 9.85 mg/kg |  |  |
| C[C@@H](NC(=O)[C@@H](N)Cc1ccc(O)cc1)C(=O)NCC(=O)N[C@@H](Cc1ccccc1)C(N)=O [H--LTyr--DAla--Gly--LPhe--NH2] | 189 | 0.85 |  |  |  |
| CSCC[C@@H](C(N)=O)N(C)C(=O)[C@H](Cc1ccccc1)NC(=O)CNC(=O)[C@@H](C)NC(=O)[C@@H](N)Cc1ccc(O)cc1 [H--LTyr--DAla--Gly--LPhe--L(N--Me)Met--NH2] | 12.2 | 0.363 |  |  |  |
| H-Tyr-Gly-Gly-Phe-Met-OH [methionine enkephalin] |  |  |  | exhibit analgesic activity | practically devoid of any useful analgesic activity |
| CC(=O)O.CC(=O)O.C[C@@H](NC(=O)[C@@H](N)Cc1ccc(O)cc1)C(=O)NCC(=O)N[C@@H](Cc1ccccc1)C(=O)NCCCCNC(=O)[C@H](Cc1ccccc1)NC(=O)CNC(=O)[C@@H](C)NC(=O)[C@@H](N)Cc1ccc(O)cc1 [Example 1, N,N'-1,4-Butanediylbis-[L-tyrosyl-D-alanyl-glycyl-L-phenylalanylamide], Diacetate Salt] | 2.83 | 0.370 |  |  |  |
| H-Tyr-Gly-Gly-Phe-Leu-OH. [leucine enkephalin] |  |  |  | exhibit analgesic activity | practically devoid of any useful analgesic activity |
